# Laboratory results from ChEMBL document CHEMBL4038282 (Eur J Med Chem, 2017).
# Activity calls are given as the source filed them. The calls are words filed in the database; no cut-off is given here.
# Key:
# MDA-MB-231 [1] = test: Antiproliferative activity against human MDA-MB-231 cells up to 72 hrs by MTT assay; assay type: functional, cell-based; conditions: MDA-MB-231, 72 h
# MDA-MB-231 [2] = test: Potency index, ratio of curcumin IC50 to compound IC50 for human MDA-MB-231 cells; assay type: functional
# HCT-116 = test: Antiproliferative activity against human HCT116 cells up to 72 hrs by MTT assay; assay type: functional, cell-based; conditions: HCT-116, 72 h
# PC-3 = test: Antiproliferative activity against human PC3 cells up to 72 hrs by MTT assay; assay type: functional, cell-based; conditions: PC-3, 72 h
# [3] = Stability of the compound in culture media measured after 72 hrs in presence of curcumin by HPLC method
# T47D [4] = test: Antiproliferative activity against ER/PR positive human T47D cells after 24 hrs by MTT assay; assay type: functional, cell-based
# MCF7 [5] = test: Antiproliferative activity against ER/PR positive human MCF7 cells after 24 hrs by MTT assay; assay type: functional, cell-based; conditions: MCF7, 24 h
# MDA-MB-453 [6] = test: Antiproliferative activity against HER2 positive human MDA-MB-453 cells after 24 hrs by MTT assay; assay type: functional, cell-based; conditions: MDA-MB-453, 24 h
# MDA-MB-157 [7] = test: Antiproliferative activity against human MDA-MB-157 cells after 24 hrs by MTT assay; assay type: functional, cell-based; conditions: MDA-MB-157, 24 h
# BT-474 [8] = test: Antiproliferative activity against HER2 positive human BT474 cells after 24 hrs by MTT assay; assay type: functional, cell-based; conditions: BT-474, 24 h
# SK-BR-3 [9] = test: Antiproliferative activity against HER2 positive human SKBR3 cells after 24 hrs by MTT assay; assay type: functional, cell-based; conditions: SK-BR-3, 24 h
# MDA-MB-468 [10] = test: Antiproliferative activity against human MDA-MB-468 cells after 24 hrs by MTT assay; assay type: functional, cell-based; conditions: MDA-MB-468, 24 h
# Hs-578T [11] = test: Antiproliferative activity against human Hs578T cells after 24 hrs by MTT assay; assay type: functional, cell-based
# MDA-MB-468 [12] = test: Antiproliferative activity against doxorubicin-resistant human MDA-MB-468 cells after 24 hrs by MTT assay; assay type: functional, cell-based; conditions: MDA-MB-468, 24 h
# T47D [13] = test: Potency index, ratio of curcumin IC50 to compound IC50 for ER/PR positive human T47D cells; assay type: functional
# MCF7 [14] = test: Potency index, ratio of curcumin IC50 to compound IC50 for ER/PR positive human MCF7 cells; assay type: functional
# MDA-MB-453 [15] = test: Potency index, ratio of curcumin IC50 to compound IC50 for HER2 positive human MDA-MB-453 cells; assay type: functional
# BT-474 [16] = test: Potency index, ratio of curcumin IC50 to compound IC50 for HER2 positive human BT474 cells; assay type: functional
# SK-BR-3 [17] = test: Potency index, ratio of curcumin IC50 to compound IC50 for HER2 positive human SKBR3 cells; assay type: functional
# MDA-MB-468 [18] = test: Potency index, ratio of curcumin IC50 to compound IC50 for human MDA-MB-468 cells; assay type: functional
# MDA-MB-157 [19] = test: Potency index, ratio of curcumin IC50 to compound IC50 for human MDA-MB-157 cells; assay type: functional
# Hs-578T [20] = test: Potency index, ratio of curcumin IC50 to compound IC50 for human Hs578T cells; assay type: functional
# MDA-MB-468 [21] = test: Potency index, ratio of curcumin IC50 to compound IC50 for doxorubicin-resistant human MDA-MB-468 cells; assay type: functional
# MDA-MB-231 [22] = test: Antiproliferative activity against human MDA-MB-231 cells at 1 to 3 uM in presence of doxorubicin by MTT assay; assay type: functional, cell-based
# Mus musculus [23] = test: Toxicity in nu/nu mouse assessed as changes in body weight at 5 to 50 mg/kg, po administered once daily for 32 days measured every 4 days during compound dosing; assay type: organism-based; conditions: in vivo
# MDA-MB-231 [24] = test: Anti-tumor activity against human MDA-MB-231 cells xenografted in nu/nu mouse assessed as reduction in tumor size at 50 mg/kg, po administered once daily for 32 days measured every 4 days during compound dosing relative to control; assay type: functional; set-up: scale not given: the % may be the effect or the level left
# Mus musculus [25] = test: Toxicity in nu/nu mouse assessed as effect on food consumption at 5 to 50 mg/kg, po administered once daily for 32 days measured during compound dosing; assay type: organism-based; conditions: in vivo, 768 h
# Mus musculus [26] = test: Toxicity in nu/nu mouse assessed as behavioral changes at 5 to 50 mg/kg, po administered once daily for 32 days measured during compound dosing; assay type: organism-based; conditions: in vivo, 768 h
# Mus musculus [27] = test: Toxicity in nu/nu mouse assessed as change in total protein level at 5 to 50 mg/kg, po administered once daily for 32 days measured post last dose; assay type: organism-based; conditions: in vivo, 768 h
# Mus musculus [28] = test: Toxicity in nu/nu mouse assessed as change in serum albumin level at 5 to 50 mg/kg, po administered once daily for 32 days measured post last dose; assay type: organism-based; conditions: in vivo, 768 h
# Mus musculus [29] = test: Toxicity in nu/nu mouse assessed as change in serum creatinine level at 5 to 50 mg/kg, po administered once daily for 32 days measured post last dose; assay type: organism-based; conditions: in vivo, 768 h
# Mus musculus [30] = test: Toxicity in nu/nu mouse assessed as change in blood urea nitrogen level at 5 to 50 mg/kg, po administered once daily for 32 days measured post last dose; assay type: organism-based; conditions: in vivo, 768 h
# Mus musculus [31] = test: Toxicity in nu/nu mouse assessed as change in blood glucose level at 5 to 50 mg/kg, po administered once daily for 32 days measured post last dose; assay type: organism-based; conditions: in vivo, 768 h
# Mus musculus [32] = test: Toxicity in nu/nu mouse assessed as change in blood uric acid level at 5 to 50 mg/kg, po administered once daily for 32 days measured post last dose; assay type: organism-based; conditions: in vivo, 768 h
# MDA-MB-231 [33] = test: Anti-tumor activity against human MDA-MB-231 cells xenografted in nu/nu mouse assessed as reduction in tumor weight at 50 mg/kg, po administered once daily for 32 days; assay type: functional; set-up: scale not given: the % may be the effect or the level left
# MDA-MB-231 [34] = test: Anti-tumor activity against human MDA-MB-231 cells xenografted in nu/nu mouse assessed as reduction in tumor weight at 50 mg/kg, po administered once daily for 32 days in presence of doxorubicin; assay type: functional; set-up: scale not given: the % may be the effect or the level left
# Mus musculus [35] = test: Toxicity in nu/nu mouse assessed as behavioral changes at 50 mg/kg, po administered once daily for 32 days in presence of doxorubicin; assay type: organism-based; conditions: in vivo, 768 h
# Mus musculus [36] = test: Toxicity in nu/nu mouse assessed as change in body weight at 50 mg/kg, po administered once daily for 32 days in presence of doxorubicin; assay type: organism-based; conditions: in vivo, 768 h
# Mus musculus [37] = test: Toxicity in nu/nu mouse assessed as hematological changes at 50 mg/kg, po administered once daily for 32 days in presence of doxorubicin; assay type: organism-based; conditions: in vivo, 768 h
# MDA-MB-231 [38] = test: Cell cycle arrest in human MDA-MB-231 cells assessed as increase in G2/M population by propidium iodide staining based flow cytometry; assay type: functional
# [39] = Solubility of the compound in water after 24 hrs by shake-flask method; assay type: physicochemical
# MDA-MB-231 [40] = test: Induction of autophagy in human MDA-MB-231 cells; assay type: functional, cell-based
# MDA-MB-231 [41] = test: Induction of apoptosis in human MDA-MB-231 cells; assay type: functional, cell-based
# MDA-MB-231 [42] = test: Effect on heme oxygenase-1 expression in human MDA-MB-231 cells by microarray analysis; assay type: functional, cell-based
# Mus musculus [43] = test: Acute-toxicity in nu/nu mouse assessed as changes in body weight at 500 mg/kg, po administered once daily for 5 days measured for 21 days; assay type: organism-based; conditions: in vivo, 504 h
# Mus musculus [44] = test: Acute-toxicity in nu/nu mouse assessed as behavioral changes at 500 mg/kg, po administered once daily for 5 days measured for 21 days; assay type: organism-based; conditions: in vivo, 504 h
# [45] = Solubility of the compound in ethanol after 24 hrs by shake-flask method; assay type: physicochemical; conditions: ethanol
# MDA-MB-231 [46] = test: Potency index, ratio of test compound to curcumin for anti-tumor activity against human MDA-MB-231 cells xenografted in nu/nu mouse; assay type: functional
smiles,measurement,setting,value
COc1cc(/C=C/C(O)=C/C(=O)/C=C/c2ccc(OC(=O)C(C)(CO)CO)c(OC)c2)ccc1O,IC50,MDA-MB-231 [1],5.94 µM
same,Ratio IC50,MDA-MB-231 [2],2.4 - 12.2
same,IC50,HCT-116,15.5 µM
same,IC50,PC-3,17.4 µM
COc1cc(/C=C/C(=O)/C=C(O)/C=C/c2ccc(OC(=O)C(C)(CO)CO)c(OC)c2)ccc1OC(=O)C(C)(CO)CO,IC50,MDA-MB-231 [1],2.67 µM
same,Ratio IC50,MDA-MB-231 [2],6.1
same,Stability,[3],Stable
same,IC50,HCT-116,3.91 µM
same,IC50,PC-3,3.9 µM
same,IC50,T47D [4],19.3 µM
same,IC50,MCF7 [5],6.13 µM
same,IC50,MDA-MB-453 [6],3.97 µM
same,IC50,MDA-MB-157 [7],9.23 µM
same,IC50,BT-474 [8],6.15 µM
same,IC50,SK-BR-3 [9],6.39 µM
same,IC50,MDA-MB-468 [10],6.13 µM
same,IC50,Hs-578T [11],7.96 µM
same,IC50,MDA-MB-468 [12],6.52 µM
same,Ratio IC50,T47D [13],2.5 - 8.6
same,Ratio IC50,MCF7 [14],2.5 - 8.6
same,Ratio IC50,MDA-MB-453 [15],2.5 - 8.6
same,Ratio IC50,BT-474 [16],2.5 - 8.6
same,Ratio IC50,SK-BR-3 [17],2.5 - 8.6
same,Ratio IC50,MDA-MB-468 [18],3.4 - 7.4
same,Ratio IC50,MDA-MB-157 [19],3.4 - 7.4
same,Ratio IC50,Hs-578T [20],3.4 - 7.4
same,Ratio IC50,MDA-MB-468 [21],10
same,Activity,MDA-MB-231 [22],Active
same,Activity,Mus musculus [23],Non-Toxic
same,Activity,MDA-MB-231 [24],60%
same,Activity,Mus musculus [25],Non-Toxic
same,Activity,Mus musculus [26],Non-Toxic
same,Activity,Mus musculus [27],Non-Toxic
same,Activity,Mus musculus [28],Non-Toxic
same,Activity,Mus musculus [29],Non-Toxic
same,Activity,Mus musculus [30],Non-Toxic
same,Activity,Mus musculus [31],Non-Toxic
same,Activity,Mus musculus [32],Non-Toxic
same,Activity,MDA-MB-231 [33],60%
same,Activity,MDA-MB-231 [34],80%
same,Activity,Mus musculus [35],Non-Toxic
same,Activity,Mus musculus [36],Non-Toxic
same,Activity,Mus musculus [37],Non-Toxic
same,Activity,MDA-MB-231 [38],Active
same,solubility thermodynamic at 24 h,[39],21.1 µg/mL
same,Activity,MDA-MB-231 [40],Active
same,Activity,MDA-MB-231 [41],Active
same,Activity,MDA-MB-231 [42],Active
same,Activity,Mus musculus [43],Non-Toxic
same,Activity,Mus musculus [44],Non-Toxic
same,solubility thermodynamic at 24 h,[45],13800 µg/mL
same,Ratio,MDA-MB-231 [46],10
COc1ccc(/C=C/C(=O)C(C)(C)C(=O)/C=C/c2ccc(OC)c(OC(=O)C(C)(CO)CO)c2)cc1OC(=O)C(C)(CO)CO,IC50,MDA-MB-231 [1],2.7 µM
same,Ratio IC50,MDA-MB-231 [2],2.4 - 12.2
CC(CO)(CO)C(=O)Oc1ccc(/C=C/C(=O)C(C)(C)C(=O)/C=C/c2ccc(OC(=O)C(C)(CO)CO)cc2)cc1,IC50,MDA-MB-231 [1],2.98 µM
same,Ratio IC50,MDA-MB-231 [2],2.4 - 12.2
same,IC50,HCT-116,2.63 µM
same,IC50,PC-3,3.62 µM
COc1cc(/C=C/C(=O)C(Cc2ccccc2)(Cc2ccccc2)C(=O)/C=C/c2ccc(OC(=O)C(C)(CO)CO)c(OC)c2)ccc1OC(=O)C(C)(CO)CO,IC50,MDA-MB-231 [1],2.11 µM
same,Ratio IC50,MDA-MB-231 [2],2.4 - 12.2
same,IC50,HCT-116,3.88 µM
same,IC50,PC-3,7.28 µM
COc1ccc(/C=C/C(=O)/C=C(O)/C=C/c2ccc(OC)c(OC(=O)C(C)(CO)CO)c2)cc1OC(=O)C(C)(CO)CO,IC50,MDA-MB-231 [1],4.61 µM
same,Ratio IC50,MDA-MB-231 [2],3.5
same,IC50,HCT-116,2.79 µM
same,IC50,PC-3,4.74 µM
COc1ccc(/C=C/C(O)=C/C(=O)/C=C/c2ccc(OC)c(OC(=O)C(C)(CO)CO)c2)cc1O,IC50,MDA-MB-231 [1],2.29 µM
same,Ratio IC50,MDA-MB-231 [2],2.4 - 12.2
same,IC50,HCT-116,1.95 µM
same,IC50,PC-3,2.32 µM
CC(CO)(CO)C(=O)Oc1ccc(/C=C/C(=O)/C=C(O)/C=C/c2ccc(OC(=O)C(C)(CO)CO)cc2)cc1,IC50,MDA-MB-231 [1],6.74 µM
same,Ratio IC50,MDA-MB-231 [2],2.4 - 12.2
same,IC50,HCT-116,4.1 µM
same,IC50,PC-3,5.59 µM
